Data as given in patent US20260014194A1, “COMBINATIONS COMPRISING METAP2 INHIBITORS FOR THE TREATMENT OF CANCER” (SynDevRx, Inc., priority 2022, published 2026).

What was measured:
[1] = Body weight in MCF-7 tumor-bearing mice; format: in vivo, NU/j mice; conditions: FIG. 34; compared to vehicle group; Compound 1 8 mg/kg, inavolisib 25 mg/kg
Protocol: (§1) Animals: Female NU/j mice, 6 weeks of age upon delivery, were received and acclimated at 5 mice per cage for a minimum of 7 days. Mice were housed in autoclaved caging with autoclaved water throughout the course of the study. The animals had free access to food (irradiated chow 2920X) and water. The animals were housed in a temperature and humidity-controlled room with a 12-hour light cycle.
Inavolisib was administered orally (PO) once per day (QD) at an amount of 25 mg/kg for the duration of the study.

MCF-7 cells = test: MCF-7 mammary fat pad tumor model: tumor volume and tumor growth inhibition; format: in vivo, NU/j mice; conditions: inavolisib 25 mg/kg PO QD
Protocol: as §1
Cell Culture: MCF-7 cells were cultured in Dulbecco's Modified Eagle Medium (DMEM) with 10% FBS.
Tumor Cell Implantation: On the day of implantation, cells were washed 1× with phosphate-buffered saline (PBS). Following washing, cells were pelleted (5 min @1000 rpm, RT) and then counted with a hemocytometer. A cell concentration of 5×10^6 per mouse was re-suspended in an appropriate amount of PBS and 1:1 Matrigel (kept on ice until implantation). Forty-eight hours prior to cell implantation, a 17-β estradiol pellet (0.36 mg 60-day slow release pellet) was implanted subcutaneously between the scapulae of each mouse. […]
Tumor Assessment: prior to cell implantation, all animals were ear tagged. Beginning 5 days post cell implantation, tumors were measured two times weekly (length×width) using a wireless Mitutoyo UWAVE-T digital calipers in conjunction with UWAVE-R to record measurements. […] Randomization was determined by tumor volume of all of the mice. […]

For `C[C@H](Nc1ccc2c(c1)OCCn1cc(N3C(=O)OC[C@H]3C(F)F)nc1-2)C(N)=O` [Inavolisib, inavolisib], the “Weight loss (body weight change over the study)” value [1] was “increased as compared to the vehicle group”, the “Tumor Growth Inhibition” value (MCF-7 cells; Day 25, Compound 1 8 mg/kg SC Q4D) was 74% and the “Tumor Volume on Day 25” value (MCF-7 cells; starting tumor volume 59 mm^3, Compound 1 8 mg/kg SC Q4D, vehicle 469 mm^3) was 167 mm^3.
